Data as given in patent US5886190A, “Rapid synthesis and use of 18F-fluoromisonidazole and analogs” (priority 1997, dated 1999).

How the values were obtained:
hypoxic cells [1] = settings: radiobiologically significant oxygen levels; cited from earlier work
[2] = tested on: hypoxic elements within a tumor volume; settings: 2 or more hours after injection; cited from earlier work
[3] = tested on: hypoxic elements within a tumor volume; assay: Patient studies of ^18 F-FMISO uptake in tumors; settings: in vivo
Description: In patient studies, the hypoxic elements within a tumor volume was defined as regions with a threshold regional tumor to plasma (^18 F-FMISO) ratio of ≥1.4 by 2 or more hours after injection.

mammary tumor = assay: Autoradiographic studies in tumor-bearing rats; settings: 1 hour postinjection
Procedure: (§1) The synthesis scheme for [^18 F]FETNIM is depicted in FIG. 6. Biodistribution studies of [^18 F]FETNIM were performed at 1, 2 and 4 hours in mammary tumor-bearing rats (10 μCi, iv, N=3/time interval). Autoradiograms were performed at 1 hour postinjection of [^18 F]FETNIM, and a comparison has been made with [^18 F]fluoromisonidazole (FMISO). Intratumoral oxygen tension measurements were performed using the Eppendorf computerized histographic system. Twenty to twenty-five pO2 measurements along each of 2 to 3 linear tracks were performed at 0.4 mm intervals on each tumor. PET imaging studies of [^18 F]FETNIM were performed in rabbits bearing V2 tumors (N=3, 4 mCI, iv) which were located on the right leg.
Female Fischer 344 mammary tumor-bearing rats (n=3) after receiving [^18 F]FETNIM (2 mCi, iv) were sacrificed at 1 h. […] The rats were sacrificed at 1 hour postinjection. The rat body was fixed in a carboxymethyl cellulose (4%) block. The frozen body in a block was mounted to a cryostat (LKB 2250 cryo-microtome, Ijamsville, Md.) and 40 μm coronal sections were made. The section was freeze dried, then mounted on a x-ray film (X-Omat AR, Kodak, Rochester, N.Y.) for 24 hours.

[4] = tested on: nasalpharyngeal cancer (NPC); assay: PET imaging of patients with nasalpharyngeal cancer; format: in vivo, human (patients); settings: 10 mCi
Procedure: PET imaging studies were performed on two patients with nasalpharyngeal cancer (NPC). […] After each patient had received 10 mCi of [^18 F]FMISO, eight consecutive 15-min scans were taken. […] Each patient was also administered [^18 F]FDG to ascertain the tumor region.

[5] = format: in vivo, 70 Kg male (human)
Description: The following Table summarizes the results of dosimetry calculation for radiation exposure to several […] tissues.
Dosimetry: Normal Tissue Dosimetry for ^18 F-FMISO

rats = settings: 2 mCi/Kg single dose; n=3; follow-up 5 days
Procedure: In addition, animal acute toxicity studies have been performed, rats (n=3) were administered 2 mCi/Kg as a single dose.

hypoxic cells [6] = assay: Selectivity to hypoxic cells (PET imaging, autoradiograms, biodistribution); settings: in vivo
Procedure: as §1
PET imaging was performed with a positron camera (Positron Corporation, Houston, Tex.). The tomograph has a field-of-view of 42 cm on transverse and 12 cm on coronal planes. The axial resolution on the reconstructed plane is 1.2 cm. […]
Female Fischer 344 rats (250-275 g) (Harlan, Inc., Indianapolis, Ind.) were inoculated with mammary tumor cells in the lumbar area using a 13762 tumor cell line (s.c. 10^5 cells/rat). […] The tissues were excised, weighed and counted for radioactivity. The percent of injected dose per gram of tissue weight was determined.

[7] = tested on: intracellular nitroreductases; settings: cited from earlier work

## O=[N+]([O-])c1nccn1CC(O)C[18F] (stereo not shown) [[^18 F]FMISO, 3-[^18 F]Fluoro-1-(2'-nitro-1'-imidazoyl)-2-propanol]
Hypoxic cells [1]
  Selective binding to hypoxic cells: bind selectively to hypoxic cells in vitro and in vivo
[2]
  Threshold regional tumor to plasma ratio defining hypoxic elements: ≥ 1.4
[3]
  Feasibility of detecting hypoxia in human head and neck tumors: feasibility of using ^18 F-FMISO to detect hypoxia in human head and neck tumors
Mammary tumor
  Uptake in intestines and colon: high uptake
Mammary tumor; autoradiogram
  Differentiation of hypoxic versus necrotic regions in the tumor: could differentiate hypoxic versus necrotic regions in the tumor
[4]
  Detection of hypoxic tumors by PET: able to detect primary or metastatic hypoxic tumors
[4]; first patient
  PET tumor uptake, first patient: showed tumor uptake in the lymph node region
[4]; second patient
  PET finding, second patient: the recurrent primary tumor is hypoxic
[5]; 70 Kg male, 0.1 mCi/Kg
  Bladder wall dose relative to muscle dose: about five times as much
  Liver and kidney dose relative to muscle dose: nearly twice the muscle dose
  Total body musculature dose in a routine study: 120 mrem
[5]; bladder, 7 mCi/70 Kg, n = 2
  Normal tissue dose, bladder: 570 mrad
[5]; bladder, ± SD
  Normal tissue dosimetry, bladder: 81.5 ± 47 mrad/mCi
[5]; kidney, 7 mCi/70 Kg, n = 3
  Normal tissue dose, kidney: 180 mrad
[5]; kidney, ± SD
  Normal tissue dosimetry, kidney: 25.8 ± 5.5 mrad/mCi
[5]; liver, 7 mCi/70 Kg, n = 3
  Normal tissue dose, liver: 190 mrad
[5]; liver, ± SD
  Normal tissue dosimetry, liver: 26.8 ± 9.7 mrad/mCi
[5]; muscle, 7 mCi/70 Kg, n = 6
  Normal tissue dose, muscle: 120 mrad
[5]; muscle, ± SD
  Normal tissue dosimetry, muscle: 16.8 ± 7.9 mrad/mCi
rats
  Acute toxicity: All rats tolerated this dose without toxicity
Hypoxic cells [6]
  Selectivity to hypoxic cells: selective to hypoxic cells
[7]
  Metabolism: metabolized by intracellular nitroreductases
